Source: PubChem BioAssay (NCI)
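Where inhibition never reached the appropriate level, the endpoint shown equals the highest concentration tested. Otherwise, values were interpolated linearly from a five-concentration, 48-hour dose response in 96-well plates. Here, GI50 denotes the concentration required for 50% inhibition of growth. TGI: total growth inhibition.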

Tested on: BT-549 breast
Assay: growth of human tumour cells (NCI), 48 h

SMILES	TGI [µM]	GI50 [µM]
CCC1(O)C(=O)OCc2c1cc1n(c2=O)Cc2cc3c(N)cccc3nc2-1 (stereo not drawn)	4.95	–
Cc1cc(C2CCCCC2)n(O)c(=O)c1	> 100	6.19
CN(C)C(=S)SN(C)C(=O)Nc1ccccc1	> 100	–

Tested on: HS 578T breast
Assay: growth of human tumour cells (NCI), 48 h

SMILES	TGI [µM]	GI50 [µM]
CCC1(O)C(=O)OCc2c1cc1n(c2=O)Cc2cc3c(N)cccc3nc2-1 (stereo not drawn)	22.8	–
Cc1cc(C2CCCCC2)n(O)c(=O)c1	> 100	46
CN(C)C(=S)SN(C)C(=O)Nc1ccccc1	> 100	–

Tested on: KM20L2 colon
Assay: growth of human tumour cells (NCI), 48 h

SMILES	TGI [µM]
COC(=O)C(=O)C(C(=O)C(=O)Nc1ccc(C)cc1C)c1nc2ccccc2[nH]c1=O (stereo not drawn)	> 100
Cc1ccc(N=NC(C(=O)c2ccccc2)C(=O)c2ccccc2)cc1	60.9
Cc1ccc(NC(=O)C2C(=O)N(c3ccc(C)c(C)c3)C(=O)/C2=N/O)cc1C (stereo not drawn)	> 100
N#CCCN(c1ccc(/C=C2\N=C(c3ccc(Cl)cc3)OC2=O)cc1)S(=O)(=O)c1ccccc1	> 100
CCC1(O)C(=O)OCc2c1cc1n(c2=O)Cc2cc3c(N)cccc3nc2-1 (stereo not drawn)	20.5
N#CCCN(CCC#N)c1ccc(/C=C2\N=C(CN3C(=O)c4ccccc4C3=O)OC2=O)cc1	> 100
NCCCNCCSSCCCCS(=O)O	> 100
Cc1cc(C2CCCCC2)n(O)c(=O)c1	> 100
COC(=O)C(=O)C(C(=O)C=C(C)C)C(=O)C(=O)Nc1ccc(Cl)cc1C (stereo not drawn)	> 100
CN(C)C(=S)SN(C)C(=O)Nc1ccccc1	> 100
O=S(O)CCCCSSCCCCSSCCCCS(=O)O	> 100
N#Cc1cnsc1	> 100
CCOC(=O)NC(=O)c1cn(CCCOC(=O)NCCCCCCNC(=O)OCCCn2c(=O)c(C(=O)NC(=O)OCC)cn(C)c2=O)c(=O)n(C)c1=O	> 100
O=C1C2=C(CC3C(C2)C3(Br)Br)C(=O)C2=C1CC1C(C2)C1(Br)Br (stereo not drawn)	> 100
CC(C)=CC(=O)N1CCN(C(=O)C=C(C)C)CC1	> 100
CC(=O)c1ccc(NC(=O)/C(Cc2ccccn2)=N/NC(=O)C[N+](C)(C)C)cc1	> 100
CCc1cccc(C)c1NC(C)=O	> 100
O=C(CC(=O)N1N=C(c2ccccc2)C(N=Nc2ccc(Cl)cc2)C1=O)Nc1ccccc1Cl (stereo not drawn)	> 100

Tested on: LXFL 529 NSCLC
Assay: growth of human tumour cells (NCI), 48 h

SMILES	TGI [µM]	GI50 [µM]
COC(=O)C(=O)C(C(=O)C(=O)Nc1ccc(C)cc1C)c1nc2ccccc2[nH]c1=O (stereo not drawn)	> 100	–
Cc1ccc(N=NC(C(=O)c2ccccc2)C(=O)c2ccccc2)cc1	> 100	–
Cc1ccc(NC(=O)C2C(=O)N(c3ccc(C)c(C)c3)C(=O)/C2=N/O)cc1C (stereo not drawn)	> 100	–
N#CCCN(c1ccc(/C=C2\N=C(c3ccc(Cl)cc3)OC2=O)cc1)S(=O)(=O)c1ccccc1	> 100	–
CCC1(O)C(=O)OCc2c1cc1n(c2=O)Cc2cc3c(N)cccc3nc2-1 (stereo not drawn)	4.71	0.307
N#CCCN(CCC#N)c1ccc(/C=C2\N=C(CN3C(=O)c4ccccc4C3=O)OC2=O)cc1	> 100	–
NCCCNCCSSCCCCS(=O)O	92.2	–
Cc1cc(C2CCCCC2)n(O)c(=O)c1	> 100	–
COC(=O)C(=O)C(C(=O)C=C(C)C)C(=O)C(=O)Nc1ccc(Cl)cc1C (stereo not drawn)	> 100	–
CN(C)C(=S)SN(C)C(=O)Nc1ccccc1	> 100	–
O=S(O)CCCCSSCCCCSSCCCCS(=O)O	28.4	–
N#Cc1cnsc1	> 100	–
CCOC(=O)NC(=O)c1cn(CCCOC(=O)NCCCCCCNC(=O)OCCCn2c(=O)c(C(=O)NC(=O)OCC)cn(C)c2=O)c(=O)n(C)c1=O	> 100	–
O=C1C2=C(CC3C(C2)C3(Br)Br)C(=O)C2=C1CC1C(C2)C1(Br)Br (stereo not drawn)	> 100	–
CC(C)=CC(=O)N1CCN(C(=O)C=C(C)C)CC1	> 100	–
CC(=O)c1ccc(NC(=O)/C(Cc2ccccn2)=N/NC(=O)C[N+](C)(C)C)cc1	> 100	–
CCc1cccc(C)c1NC(C)=O	> 100	–
O=C(CC(=O)N1N=C(c2ccccc2)C(N=Nc2ccc(Cl)cc2)C1=O)Nc1ccccc1Cl (stereo not drawn)	> 100	–

Tested on: MDA-N
Assay: growth of human tumour cells (NCI), 48 h

SMILES	TGI [µM]
CCC1(O)C(=O)OCc2c1cc1n(c2=O)Cc2cc3c(N)cccc3nc2-1 (stereo not drawn)	2.57
CN(C)C(=S)SN(C)C(=O)Nc1ccccc1	43.3

Tested on: NCI/ADR-RES ovarian
Assay: growth of human tumour cells (NCI), 48 h

SMILES	TGI [µM]	GI50 [µM]
CCC1(O)C(=O)OCc2c1cc1n(c2=O)Cc2cc3c(N)cccc3nc2-1 (stereo not drawn)	0.228	–
Cc1cc(C2CCCCC2)n(O)c(=O)c1	14.9	1.22
CN(C)C(=S)SN(C)C(=O)Nc1ccccc1	11.1	–

Tested on: RXF-631 renal
Assay: growth of human tumour cells (NCI), 48 h

SMILES	TGI [µM]
COC(=O)C(=O)C(C(=O)C(=O)Nc1ccc(C)cc1C)c1nc2ccccc2[nH]c1=O (stereo not drawn)	> 100
Cc1ccc(N=NC(C(=O)c2ccccc2)C(=O)c2ccccc2)cc1	> 100
Cc1ccc(NC(=O)C2C(=O)N(c3ccc(C)c(C)c3)C(=O)/C2=N/O)cc1C (stereo not drawn)	> 100
N#CCCN(c1ccc(/C=C2\N=C(c3ccc(Cl)cc3)OC2=O)cc1)S(=O)(=O)c1ccccc1	> 100
CCC1(O)C(=O)OCc2c1cc1n(c2=O)Cc2cc3c(N)cccc3nc2-1 (stereo not drawn)	1.62
N#CCCN(CCC#N)c1ccc(/C=C2\N=C(CN3C(=O)c4ccccc4C3=O)OC2=O)cc1	> 100
NCCCNCCSSCCCCS(=O)O	> 100
Cc1cc(C2CCCCC2)n(O)c(=O)c1	> 100
COC(=O)C(=O)C(C(=O)C=C(C)C)C(=O)C(=O)Nc1ccc(Cl)cc1C (stereo not drawn)	> 100
CN(C)C(=S)SN(C)C(=O)Nc1ccccc1	> 100
O=S(O)CCCCSSCCCCSSCCCCS(=O)O	> 100
N#Cc1cnsc1	> 100
CCOC(=O)NC(=O)c1cn(CCCOC(=O)NCCCCCCNC(=O)OCCCn2c(=O)c(C(=O)NC(=O)OCC)cn(C)c2=O)c(=O)n(C)c1=O	> 100
O=C1C2=C(CC3C(C2)C3(Br)Br)C(=O)C2=C1CC1C(C2)C1(Br)Br (stereo not drawn)	> 100
CC(C)=CC(=O)N1CCN(C(=O)C=C(C)C)CC1	> 100
CC(=O)c1ccc(NC(=O)/C(Cc2ccccn2)=N/NC(=O)C[N+](C)(C)C)cc1	> 100
CCc1cccc(C)c1NC(C)=O	> 100
O=C(CC(=O)N1N=C(c2ccccc2)C(N=Nc2ccc(Cl)cc2)C1=O)Nc1ccccc1Cl (stereo not drawn)	> 100

Tested on: XF 498 CNS
Assay: growth of human tumour cells (NCI), 48 h

SMILES	TGI [µM]
COC(=O)C(=O)C(C(=O)C(=O)Nc1ccc(C)cc1C)c1nc2ccccc2[nH]c1=O (stereo not drawn)	> 100
Cc1ccc(N=NC(C(=O)c2ccccc2)C(=O)c2ccccc2)cc1	54.6
Cc1ccc(NC(=O)C2C(=O)N(c3ccc(C)c(C)c3)C(=O)/C2=N/O)cc1C (stereo not drawn)	> 100
N#CCCN(c1ccc(/C=C2\N=C(c3ccc(Cl)cc3)OC2=O)cc1)S(=O)(=O)c1ccccc1	> 100
CCC1(O)C(=O)OCc2c1cc1n(c2=O)Cc2cc3c(N)cccc3nc2-1 (stereo not drawn)	1.85
N#CCCN(CCC#N)c1ccc(/C=C2\N=C(CN3C(=O)c4ccccc4C3=O)OC2=O)cc1	> 100
NCCCNCCSSCCCCS(=O)O	37.4
Cc1cc(C2CCCCC2)n(O)c(=O)c1	35.8
O=S(O)CCCCSSCCCCSSCCCCS(=O)O	21.4
N#Cc1cnsc1	> 100
O=C1C2=C(CC3C(C2)C3(Br)Br)C(=O)C2=C1CC1C(C2)C1(Br)Br (stereo not drawn)	> 100
CC(C)=CC(=O)N1CCN(C(=O)C=C(C)C)CC1	> 100
CCc1cccc(C)c1NC(C)=O	> 100
O=C(CC(=O)N1N=C(c2ccccc2)C(N=Nc2ccc(Cl)cc2)C1=O)Nc1ccccc1Cl (stereo not drawn)	89.7
